The record followed here is patent US20230190663A1, “PRUSSIAN BLUE NANOPARTICLES FUNCTIONALIZATION WITH LATENCY REVERSING AGENTS AND BROADLY NEUTRALIZING ANTIBODIES, AND APPLICATIONS THEREOF” (THE GEORGE WASHINGTON UNIVERSITY, priority 2020, published 2023).

The subject of data set [1] is J-LAT cells. The data set can be described thus: Latency reversal (GFP expression) in J-LAT cells, a model of latent HIV cells. The data set is classed as cell-based. The method, then: To determine the efficiency of free Poly I:C compared to PolyIC-PBNPs on HIV reactivation, increasing concentrations were added to J-LAT cells. Specifically, nanoparticles (PolyIC-PBNP) were generated at varying Poly I:C concentrations (1.75, 1, 1.5 and 0.75 mg/mL) and added to the cell culture medium to treat the J-LAT cells.

Data set [2] deals with peripheral blood mononuclear cells (PBMCs). The data set can be described thus: Flow cytometry of immune cell ratios and activation in treated PBMCs. In kind it is cell-based, human. As to conditions: compared to untreated PBMCs, FIG. 6G. The method, then: Example 4. Primary peripheral blood mononuclear cells (PBMCs) were isolated from blood collected from healthy human donors. PBMCs were incubated with increasing concentrations of Poly-PBNP (50, 5 and 1 μg/mL of attached PolyIC) and same concentrations of Free-Poly I:C overnight. PMA (Phorbol 12-myristate 13-acetate), a known immune-stimulator, was used as positive control herein. Following this treatment, the number of viable cells was assessed.
Treated PBMCs were subjected to flow cytometry to examine ratios of immune cells in response to Poly-PBNP and Free-Poly I:C treatments. […] There was no change in the amount of NK cells (CD56+ cells) for any of the treatment groups studied, compared to untreated PBMCs (FIG. 6F).

Data set [3] concerns J-LAT cells. The data set can be described thus: Viability / cytotoxicity of treated J-LAT cells. The note with it: 1-15 μL, not transfected, FIG. 4B. The method, then:
Example 3. […] J-LAT cells harbor latent, transcriptionally competent HIV provirus that encodes green fluorescent protein (GFP) as an indicator of HIV-1 reactivation. […] Generally for effective latency reversal, free Poly I:C has to be delivered into the cytoplasm of the latently infected cells via transfection.
Next, J-LAT cells were treated with increasing concentrations of Citrate-PBNP, PEI-PBNP or polyIC-PBNP (1 μL, 5 μL, 10 μL and 15 μL with [PBNP]=2 mg/mL and [polyIC]=0.5 mg/mL) where the PBNPs were added to the cell media (i.e., the PBNPs were not transfected into the cells).

Regarding “polyinosinic-polycytidylic acid [Free Poly I:C]”, the “Hill Slope (best-fit value)” value in the data set on J-LAT cells [1] (HIV reactivation in J-LAT cells, overnight, log(agonist) vs. normalized response, variable slope) is listed as 1.904. Also, the “latency reversal at increasing concentrations” value in the data set with J-LAT cells [1] (J-LAT cells, 1, 5, 10 and 15 μL added to cell media, not transfected, FIG. 4A) is recorded as “reversed latency in a dose dependent manner”. In the data set with J-LAT cells [1] (J-LAT cells, overnight incubation, Table 1 prints none), the “EC50 of HIV reactivation (GFP expression)” value worked out at 6.944 µg/mL. In addition, in data set [2], the “NK cells activation (CD56+CD69+)” value is “no changes”. In addition, the “cytotoxicity at increasing concentrations” value in the data set on J-LAT cells [3] was “caused cytotoxicity at higher concentrations”.
